Assays:
[1] = biological target: human recombinant transporter protein serotonin (SERT) (Homo sapiens (Human), UniProt P31645); experiment: radioligand binding assay, serotonin transporter; conditions: 11 test concentrations 0.1 nM to 1 μM, duplicates, hydrochloride salts
Experimental: (§1) The monoamine transporters inhibitory activities of selected cycloalkylmethylamines of Formula (I) are reported herein. The compounds were evaluated using well established radioligand binding assays protocols (Galli, A. et al., J. Exp. Biol. 1995, 198, 2197-2212; Giros, B. et al., Trends Pharmcol. Sci. 1993, 14, 43-49; Gu, H. et al., J. Biol. Chem. 1994, 269(10), 7124-7130; Shearman, L. P. et al, Am. J. Physiol., 1998, 275(6 Pt 1), C1621-1629; Wolf, W. A. et al., J. Biol. Chem. 1992, 267(29), 20820-20825). The human recombinant transporter proteins dopamine (DAT), norepinephrine (NET) and serotonin (SERT) were selected for the in vitro assays. The radioligand binding assays were carried out at 11 different test concentrations 0.1 nM to 1 μM.
(§2) The assays were carried out in duplicates and the quantitative data are reported as Ki in the Table 1.

[2] = biological target: human recombinant transporter protein dopamine (DAT) (Homo sapiens (Human), UniProt Q01959); experiment: radioligand binding assay, dopamine transporter; conditions: 11 test concentrations 0.1 nM to 1 μM, duplicates, hydrochloride salts
Experimental: as §1, §2

[3] = biological target: human recombinant transporter protein norepinephrine (NET) (Homo sapiens (Human), UniProt P23975); experiment: radioligand binding assay, norepinephrine transporter; conditions: 11 test concentrations 0.1 nM to 1 μM, duplicates, hydrochloride salts
Experimental: as §1, §2

[4] = active metabolites of sibutramine; cited from earlier work

human recombinant transporter protein dopamine (DAT), sequence (Q01959 whole entry): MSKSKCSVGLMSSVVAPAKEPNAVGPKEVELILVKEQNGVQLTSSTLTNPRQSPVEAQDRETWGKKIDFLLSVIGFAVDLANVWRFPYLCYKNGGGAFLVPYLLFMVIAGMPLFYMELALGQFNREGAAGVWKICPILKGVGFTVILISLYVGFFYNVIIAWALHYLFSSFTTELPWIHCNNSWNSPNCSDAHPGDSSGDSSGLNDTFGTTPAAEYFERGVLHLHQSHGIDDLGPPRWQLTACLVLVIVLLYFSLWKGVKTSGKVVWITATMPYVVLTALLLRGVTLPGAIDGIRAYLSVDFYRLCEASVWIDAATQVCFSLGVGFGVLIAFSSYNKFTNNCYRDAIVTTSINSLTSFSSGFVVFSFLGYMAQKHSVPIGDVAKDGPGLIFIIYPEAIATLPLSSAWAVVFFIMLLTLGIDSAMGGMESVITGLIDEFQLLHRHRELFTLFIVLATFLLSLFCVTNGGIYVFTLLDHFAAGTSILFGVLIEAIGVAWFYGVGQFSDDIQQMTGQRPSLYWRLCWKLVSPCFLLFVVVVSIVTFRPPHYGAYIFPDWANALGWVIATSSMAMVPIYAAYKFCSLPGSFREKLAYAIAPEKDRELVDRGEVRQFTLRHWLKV
human recombinant transporter protein norepinephrine (NET), sequence (P23975 whole entry): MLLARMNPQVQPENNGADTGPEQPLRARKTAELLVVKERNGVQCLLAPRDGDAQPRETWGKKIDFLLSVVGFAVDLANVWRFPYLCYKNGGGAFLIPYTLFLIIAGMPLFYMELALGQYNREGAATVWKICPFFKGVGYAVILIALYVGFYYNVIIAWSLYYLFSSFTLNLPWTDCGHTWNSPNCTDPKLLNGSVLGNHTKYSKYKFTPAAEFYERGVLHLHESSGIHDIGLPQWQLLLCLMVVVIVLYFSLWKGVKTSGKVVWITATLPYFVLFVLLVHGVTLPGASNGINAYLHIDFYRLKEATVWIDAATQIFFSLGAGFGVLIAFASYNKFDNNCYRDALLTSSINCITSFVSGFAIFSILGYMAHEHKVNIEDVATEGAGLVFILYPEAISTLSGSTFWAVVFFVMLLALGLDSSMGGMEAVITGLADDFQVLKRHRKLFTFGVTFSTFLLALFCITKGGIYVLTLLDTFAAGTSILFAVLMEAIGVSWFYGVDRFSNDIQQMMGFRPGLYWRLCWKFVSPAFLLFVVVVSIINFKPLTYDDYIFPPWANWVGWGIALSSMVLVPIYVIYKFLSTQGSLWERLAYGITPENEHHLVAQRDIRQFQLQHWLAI

Row | SMILES | Ki [1] [nM] | Ki [2] [nM] | Ki [3] [nM] | elimination half-life [4] [h]
1 | CCOCCCCNC(CC(C)C)C1(c2ccc(SC)cc2)CCC1 (centres unmarked) [Compound 7g, N-(4-Ethoxybutyl)-3-methyl-1-(1-(4-(methylthio)phenyl)cyclobutyl)butan-1-amine] | 2.99 | 92 | 37.2 | –
2 | CCOCCNC(CC(C)C)C1(c2ccc(Cl)c(Cl)c2)CCC1 (centres unmarked) [Compound 8a, 1-(1-(3,4-Dichlorophenyl)cyclobutyl)-N-(2-ethoxyethyl)-3-methylbutan-1-amine] | 1.4 | 2.38 | 46.7 | –
3 | CCCOCCCN[C@H](CC(C)C)C1(c2ccc(Cl)c(Cl)c2)CCC1 [Compound 8d, (R)-1-(1-(3,4-Dichlorophenyl)cyclobutyl)-N-(3-propoxypropyl)-3-methylbutan-1-amine] | 3.8 | 5.45 | 72 | –
4 | COCCCCN[C@H](CC(C)C)C1(c2ccc(Cl)c(Cl)c2)CCC1 [Compound 8h, (R)-1-(1-(3,4-Dichlorophenyl)cyclobutyl)-N-(4-methoxybutyl)-3-methylbutan-1-amine] | 1.19 | 2.39 | 12.7 | –
5 | CCOCCCCN[C@H](CC(C)C)C1(c2ccc(Cl)c(Cl)c2)CCC1 [Compound 8j, (R)-1-(1-(3,4-Dichlorophenyl)cyclobutyl)-N-(4-ethoxybutyl)-3-methylbutan-1-amine] | 0.8 | 1.16 | 11 | –
6 | CCSCCCCNC(CC(C)C)C1(c2ccc(Cl)cc2)CCC1 (centres unmarked) [Compound 12b, 1-(1-(4-Chlorophenyl)cyclobutyl)-N-(4-(ethylthio)butyl)-3-methylbutan-1-amine] | 18.8 | 67.6 | 51.9 | –
7 | CCOc1ccc(C2(C(CC(C)C)NCCSCC)CCC2)cc1 (centres unmarked) [Compound 12c, 1-(1-(4-Ethoxyphenyl)cyclobutyl)-N-(2-(ethylthio)ethyl)-3-methylbutan-1-amine] | 3.31 | 116 | 1420 | –
8 | CCSCCCCNC(CC(C)C)C1(c2ccc(Cl)c(Cl)c2)CCC1 (centres unmarked) [Compound 13c, 1-(1-(3,4-Dichlorophenyl)cyclobutyl)-N-(4-(ethylthio)butyl)-3-methylbutan-1-amine] | 14.8 | 23.9 | 17.1 | –
9 | CCCCSCCCCNC(CC(C)C)C1(c2ccc(Cl)c(Cl)c2)CCC1 (centres unmarked) [Compound 13d, N-(4-(Butylthio)butyl)-1-(1-(3,4-dichlorophenyl)cyclobutyl)-3-methylbutan-1-amine] | 65.3 | 104 | 51 | –
10 | CCSCCNC(CC)C1(c2ccc(Cl)c(Cl)c2)CCC1 (centres unmarked) [Compound 13f, 1-(1-(3,4-dichlorophenyl)cyclobutyl)-N-(2-(ethylthio)ethyl)propan-1-amine] | 224 | 49.2 | 119 | –
11 | CCS(=O)(=O)CCCCNC(CC(C)C)C1(c2ccc(Cl)c(Cl)c2)CCC1 (centres unmarked) [Compound 17a, 1-(1-(3,4-Dichlorophenyl)cyclobutyl)-N-(4-(ethylsulfonyl)butyl)-3-methylbutan-1-amine] | 38.4 | 29.4 | 44.7 | –
12 | CNC(CC(C)C)C1(c2ccc(Cl)cc2)CCC1 (centres unmarked) [Compound M1] | – | – | – | 14
13 | CC(C)CC(N)C1(c2ccc(Cl)cc2)CCC1 (centres unmarked) [Compound M2] | – | – | – | 16

From US9238625B2, “Compositions, synthesis, and methods of using phenylcycloalkylmethylamine derivatives” (Reviva Pharmaceuticals, Inc., priority 2011, dated 2016)
